According to the supplement of paper PMC10949913:

Columns and labels:
Test in all cases: area under concentration-response curve (viability) (AUC (a.u.)); higher = less active
Settings in all cases: 48 h
[1] = tested on: NCI-H295R
In short: (§1)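 Cells from three adrenocortical carcinoma lines were seeded at 500–1,000 cells/well in 5 µL medium in 1,536-well plates. Each library compound was added as 23 nL at 11 concentrations, and after 48 h CellTiter-Glo was added for 15 minutes at room temperature before reading luminescence. Plate-wise normalisation to vehicle and empty-well controls preceded curve fitting. AC50 and area under the curve were calculated only for inhibitory or non-responding curve classes.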

[2] = tested on: CU-ACC1
In short: as §1

[3] = tested on: CU-ACC2
In short: as §1

Row | SMILES | area under concentration-response curve [1] | area under concentration-response curve [2] | area under concentration-response curve [3]
1 | CCOc1cc(/C=C2/C(=O)N(c3ccccc3)N=C2C)cc(Cl)c1OCC(=O)OC | 590 | 587 | 664
2 | CCOC(=O)[C@@H](N)CCC(=O)N[C@@H](CSCc1ccccc1)C(=O)N[C@@H](C(=O)OCC)c1ccccc1 | 602 | 594 | 635
3 | NC1CCC(N[C@@H]2C[C@H]2c2ccccc2)CC1 (stereo partly drawn) | 458 | 409 | 487
4 | Cc1nc(-c2cccnc2)sc1C(=O)Nc1ccccc1-c1cn2c(CN3CCOCC3)csc2n1 | 504 | 454 | 456
5 | CCC[C@@H]1C[C@@H](C(=O)N[C@@H]([C@H]2O[C@H](SC)[C@H](O)[C@@H](O)[C@H]2O)[C@H](C)Cl)N(C)C1 | 541 | 527 | 458
6 | CN(C)[C@H]\1[C@@H]2[C@@H](O)[C@@H]\3C(=C)C4=C(C(=CC=C4)O)C(=O)C3=C(\O)[C@@]2(O)C(=O)\C(=C1O)C(N)=O | 540 | 493 | 473
7 | CCOC(=O)N1c2ccc(C(F)(F)F)cc2[C@@H](N(Cc2cc(C(F)(F)F)cc(C(F)(F)F)c2)C(=O)OC)C[C@H]1CC | 533 | 502 | 636
8 | COc1ccc(C2CNC(=O)C2)cc1OC1CCCC1 (stereo not drawn) | 501 | 451 | 538
9 | Cc1ccc([S+](=O)([O-])OCC(=O)Nc2ccc(C(=O)O)c(O)c2)cc1 | 546 | 543 | 589
10 | OC(CCN1CCCCC1)(C2CC\3CC2\C=C3)C4=CC=CC=C4 (stereo not drawn) | 519 | 522 | 582
11 | OC(=O)\C1=C\N(C2CC2)C3=CC(=C(F)C=C3C1=O)N4CCNCC4 | 561 | 571 | 693
12 | CC1(C)Cc2c(sc(NC(=S)NC(=O)c3ccccc3)c2C(=O)O)CO1 | 522 | 490 | 586
13 | NC[C@H]1O[C@H](O[C@@H]2[C@H](O)[C@@H](O[C@H]3O[C@H](CO)[C@@H](O)[C@H](N)[C@H]3O)[C@H](N)C[C@@H]2N)[C@H](O)[C@@H](O)[C@@H]1O | 520 | 472 | 583
14 | c1coc(CNc2ncnc3nc[nH]c23)c1 | 565 | 409 | 556
15 | Oc1ccc(C2CCN(c3ccnc4ccccc34)CC2)cc1O | 523 | 497 | 549
16 | O=C1NC(=O)/C(=C/c2ccc3c(c2)OC(F)(F)O3)S1 | 537 | 512 | 599
17 | CC1=CC=C2N=C(NC(=O)CS\C3=N\C4=C(\SCC4)C(=O)N3C5=CC=CC=C5)SC2=C1 | 558 | 538 | 633
18 | COc1cc([C@@H](CC(=O)O)c2ccc(C)c(CN3C[C@@H](C)Oc4ccccc4[S+]3(=O)[O-])c2)cc2nnn(C)c12 | 348 | 341 | 295
19 | COC1=CC(=CC=C1)C2=CC=C(NC(=O)/C3=C(/CCC3)C(O)=O)C(=C2)F | 491 | 450 | 509
20 | CN(C)[C@H]\1[C@@H]2C[C@@H]\3CC4=C(C(=C(NC(=O)CNC(C)(C)C)C=C4N(C)C)O)C(=O)C3=C(O)/[C@@]2(O)C(=O)\C(=C1O)C(N)=O | 379 | 380 | 452
21 | C[S+](=O)([O-])c1ccc(Oc2cc(F)cc(C#N)c2)c2c1[C@H](O)C(F)(F)C2 | 603 | 571 | 645
22 | N/C(=N\OCC(O)CN1CCCCC1)c1cccnc1 (stereo not drawn) | 455 | 415 | 447
23 | Cn1cc(-c2ccc(-c3cncc(Cl)c3N3CCC4(CCNC4=O)CC3)cc2)cn1 | 514 | 521 | 622

Row | SMILES | area under concentration-response curve [1] | area under concentration-response curve [2] | area under concentration-response curve [3]
24 | O=C(NCCCNc1nc(Nc2cccc(NC(=O)N3CCCC3)c2)ncc1I)c1cccs1 | 539 | 498 | 482
25 | C=CCN(/C=C1\C(=O)O[C@@H](COC)[C@]2(C)C1=C(O)C(=O)C1=C2[C@@H](OC(C)=O)C[C@]2(C)C(=O)CC[C@H]12)CC=C | 401 | 340 | 385
26 | C[C@@H]1CN[C@H]2[C@@H](C)[C@@]\3(CC[C@H]\4[C@@H]5C/C=C6/C[C@@H](O)CC[C@]6(C)[C@H]5CC4=C3C)O[C@@H]2C1 | 511 | 463 | 433
27 | Clc1cc2c(NC3CCCC3)nnc(-c3ccncc3)c2cc1Cl | 518 | 581 | 609
28 | CCC/1=C/C2=C(C(=O)N1CC(=O)C3=CC=CC=C3)C(=C([N]2C)C(=O)NC4CCN(CC4)C(=O)CO)OCC(F)(F)F | 594 | 572 | 642
29 | Nc1nc(OC(c2ccc(-c3cccc(F)c3)cc2)C(F)(F)F)cc(-c2ccc(C[C@@H](N)C(=O)O)cc2)n1 (stereo partly drawn) | 449 | 464 | 488
30 | N#CN1CCC[C@@H](n2nc(-c3ccc(Oc4ccc(F)cc4F)cc3)c(C(N)=O)c2N)C1 | 553 | 487 | 607
31 | CCCC[C@@H](C=O)NC(=O)[C@H](CC(C)C)NC(=O)OCc1ccccc1 | 517 | 463 | 552
32 | O=C(O)C[C@H]1CC[C@H](c2ccc(-c3ccc(Nc4ccc(C(F)(F)F)nc4)cn3)cc2)CC1 | 538 | 504 | 580
33 | COc1ccc2c(c1)CC[C@@H](CN(C)CC(=O)O)[C@H]2c1ccccc1 | 464 | 487 | 514
34 | OC1CCC(Nc2ncc3nc(Nc4c(F)cc(F)cc4F)n([C@@H]4CCOC4)c3n2)CC1 (stereo partly drawn) | 446 | 464 | 531
35 | COc1ccc([C@@H]2CNC(=O)C2)cc1OC1CCCC1 | 516 | 432 | 457
36 | Cc1cc(O)cc2c1[C@]1(C)CC[C@H]3C(C)(C)CCC[C@]3(C)[C@H]1C2 | 89.9 | 53.6 | 190
37 | O=C1\C=C(OC2=C(C=CC=C12)C3=CC=CC4=C3SC5=C4C=CC=C5)\N6CCOCC6 | 497 | 374 | 557
38 | O=C(O)CSCC(=O)NC1CCSC1=O (stereo not drawn) | 405 | 379 | 415
39 | CN[C@@H](C)C(=O)N[C@H]1CN(C(=O)CC(C)C)CC[C@H]2CC[C@@H](C(=O)NC(c3ccccc3)c3ccccc3)N2C1=O | 420 | 338 | 372
40 | COc1cc2ncnc(Nc3ccc(F)c(Cl)c3)c2cc1OCCCN1CCOCC1 | 594 | 562 | 624
41 | CC/1=C/N([C@@H]2C[C@@H](O)[C@H](CO)O2)C(=O)NC1=O | 404 | 410 | 425
42 | O=C(NCC(=O)N1CCCC1)Nc1ccc2cnccc2c1 | 569 | 565 | 633
43 | O=[N+]([O-])c1ccc(-c2nc(-c3ccc(F)cc3)c(-c3ccncc3)[nH]2)cc1 | 489 | 498 | 567
44 | Cc1[nH]c(/C=C2\C(=O)Nc3ccc([S+](=O)([O-])Cc4c(Cl)cccc4Cl)cc32)c(C)c1C(=O)N1CCC[C@@H]1CN1CCCC1 | 376 | 334 | 351
45 | CN1C(=O)C(=C\C2=C1N=C(NC3=CC=CC(=C3)C(O)=O)N=C2)/C4=C(Cl)C=CC=C4Cl | 483 | 515 | 528
46 | N[S+](=O)([O-])c1cc(Cl)c(Cl)c([S+](N)(=O)[O-])c1 | 524 | 459 | 528
